ChEMBL document CHEMBL4742395, “Substituted Pyrazole Derivatives As Selective CDK12/13 Inhibitors” (2019)

Experiments:
[1] = target: T1, Cyclin-dependent kinase 12 (Homo sapiens, UniProt Q9NYV4); experiment: Inhibition of CDK12 (unknown origin) using ULight - 4E - BP1( Thr37 / Thr46 ) as substrate preincubated for 60 mins bu LANCE-TR-FRET assay
Target sequence in this assay (Q9NYV4 whole entry): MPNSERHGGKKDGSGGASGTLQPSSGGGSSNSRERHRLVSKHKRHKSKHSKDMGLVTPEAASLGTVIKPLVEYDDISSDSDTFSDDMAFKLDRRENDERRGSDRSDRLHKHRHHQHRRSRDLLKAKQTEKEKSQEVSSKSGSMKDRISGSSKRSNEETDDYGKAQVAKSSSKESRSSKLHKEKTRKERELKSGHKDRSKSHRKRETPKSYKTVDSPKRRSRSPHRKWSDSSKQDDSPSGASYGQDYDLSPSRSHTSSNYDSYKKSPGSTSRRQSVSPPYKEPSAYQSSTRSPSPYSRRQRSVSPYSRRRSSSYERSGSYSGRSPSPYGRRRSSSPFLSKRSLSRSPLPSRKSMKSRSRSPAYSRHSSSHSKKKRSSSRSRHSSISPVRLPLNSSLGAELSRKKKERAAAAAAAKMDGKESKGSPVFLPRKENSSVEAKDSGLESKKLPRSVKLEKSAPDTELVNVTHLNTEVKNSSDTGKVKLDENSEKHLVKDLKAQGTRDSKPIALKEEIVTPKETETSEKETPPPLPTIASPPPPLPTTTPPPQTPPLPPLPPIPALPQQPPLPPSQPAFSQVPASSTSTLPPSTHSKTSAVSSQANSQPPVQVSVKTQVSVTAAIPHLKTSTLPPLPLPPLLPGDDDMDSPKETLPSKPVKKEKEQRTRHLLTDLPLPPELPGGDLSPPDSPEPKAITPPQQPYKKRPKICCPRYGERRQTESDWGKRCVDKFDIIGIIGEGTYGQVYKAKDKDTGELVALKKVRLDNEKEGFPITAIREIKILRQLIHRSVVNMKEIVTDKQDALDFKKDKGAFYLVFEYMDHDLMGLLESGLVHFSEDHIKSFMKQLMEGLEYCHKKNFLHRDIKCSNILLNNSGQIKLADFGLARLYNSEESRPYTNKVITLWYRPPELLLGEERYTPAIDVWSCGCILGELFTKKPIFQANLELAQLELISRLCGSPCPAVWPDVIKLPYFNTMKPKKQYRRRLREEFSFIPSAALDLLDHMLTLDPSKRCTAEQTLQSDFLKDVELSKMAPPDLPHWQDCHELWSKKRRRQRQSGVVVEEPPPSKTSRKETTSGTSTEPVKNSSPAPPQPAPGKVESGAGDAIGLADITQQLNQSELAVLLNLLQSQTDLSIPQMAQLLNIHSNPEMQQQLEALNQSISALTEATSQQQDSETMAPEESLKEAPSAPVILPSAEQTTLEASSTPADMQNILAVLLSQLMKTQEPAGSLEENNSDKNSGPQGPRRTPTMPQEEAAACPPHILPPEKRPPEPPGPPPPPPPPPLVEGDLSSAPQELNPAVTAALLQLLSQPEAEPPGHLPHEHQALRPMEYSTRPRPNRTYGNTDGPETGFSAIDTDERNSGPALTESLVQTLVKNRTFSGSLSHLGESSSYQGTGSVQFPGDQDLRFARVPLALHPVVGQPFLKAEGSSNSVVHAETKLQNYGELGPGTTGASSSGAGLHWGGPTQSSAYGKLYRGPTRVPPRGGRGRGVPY

[2] = target: Cyclin-dependent kinase 13 (Homo sapiens, UniProt Q14004); experiment: Binding affinity to CDK13 (unknown origin) by TR-FRET assay
[3] = target: Cyclin-dependent kinase 7 (Homo sapiens) (UniProt P50613); experiment: Binding affinity to CDK7 in human Jurkat cells assessed as target occupancy after 6 hrs by spectrophotometry; format: cell-based
[4] = species: Homo sapiens; experiment: Selectivity index, ratio of target occupancy for CDK7 in human Jurkat cells to target occupancy for CDK12 in human Jurkat cells; format: cell-based
[5] = target: T1, Cyclin-dependent kinase 12; experiment: Binding affinity to CDK12 in human Jurkat cells assessed as target occupancy after 6 hrs by spectrophotometry; format: cell-based
Target sequence in this assay (Q9NYV4 whole entry, looked up): as the sequence (Q9NYV4 whole entry) above

[6] = species: Homo sapiens; experiment: Selectivity index, ratio of IC50 for inhibition of CDK7 (unknown origin) to IC50 for inhibition of CDK12 (unknown origin)
[7] = species: Homo sapiens; experiment: Selectivity index, ratio of IC50 for inhibition of CDK7 (unknown origin) to IC50 for binding affinity to CDK13 (unknown origin)

Cyclin-dependent kinase 13, sequence (Q14004 whole entry): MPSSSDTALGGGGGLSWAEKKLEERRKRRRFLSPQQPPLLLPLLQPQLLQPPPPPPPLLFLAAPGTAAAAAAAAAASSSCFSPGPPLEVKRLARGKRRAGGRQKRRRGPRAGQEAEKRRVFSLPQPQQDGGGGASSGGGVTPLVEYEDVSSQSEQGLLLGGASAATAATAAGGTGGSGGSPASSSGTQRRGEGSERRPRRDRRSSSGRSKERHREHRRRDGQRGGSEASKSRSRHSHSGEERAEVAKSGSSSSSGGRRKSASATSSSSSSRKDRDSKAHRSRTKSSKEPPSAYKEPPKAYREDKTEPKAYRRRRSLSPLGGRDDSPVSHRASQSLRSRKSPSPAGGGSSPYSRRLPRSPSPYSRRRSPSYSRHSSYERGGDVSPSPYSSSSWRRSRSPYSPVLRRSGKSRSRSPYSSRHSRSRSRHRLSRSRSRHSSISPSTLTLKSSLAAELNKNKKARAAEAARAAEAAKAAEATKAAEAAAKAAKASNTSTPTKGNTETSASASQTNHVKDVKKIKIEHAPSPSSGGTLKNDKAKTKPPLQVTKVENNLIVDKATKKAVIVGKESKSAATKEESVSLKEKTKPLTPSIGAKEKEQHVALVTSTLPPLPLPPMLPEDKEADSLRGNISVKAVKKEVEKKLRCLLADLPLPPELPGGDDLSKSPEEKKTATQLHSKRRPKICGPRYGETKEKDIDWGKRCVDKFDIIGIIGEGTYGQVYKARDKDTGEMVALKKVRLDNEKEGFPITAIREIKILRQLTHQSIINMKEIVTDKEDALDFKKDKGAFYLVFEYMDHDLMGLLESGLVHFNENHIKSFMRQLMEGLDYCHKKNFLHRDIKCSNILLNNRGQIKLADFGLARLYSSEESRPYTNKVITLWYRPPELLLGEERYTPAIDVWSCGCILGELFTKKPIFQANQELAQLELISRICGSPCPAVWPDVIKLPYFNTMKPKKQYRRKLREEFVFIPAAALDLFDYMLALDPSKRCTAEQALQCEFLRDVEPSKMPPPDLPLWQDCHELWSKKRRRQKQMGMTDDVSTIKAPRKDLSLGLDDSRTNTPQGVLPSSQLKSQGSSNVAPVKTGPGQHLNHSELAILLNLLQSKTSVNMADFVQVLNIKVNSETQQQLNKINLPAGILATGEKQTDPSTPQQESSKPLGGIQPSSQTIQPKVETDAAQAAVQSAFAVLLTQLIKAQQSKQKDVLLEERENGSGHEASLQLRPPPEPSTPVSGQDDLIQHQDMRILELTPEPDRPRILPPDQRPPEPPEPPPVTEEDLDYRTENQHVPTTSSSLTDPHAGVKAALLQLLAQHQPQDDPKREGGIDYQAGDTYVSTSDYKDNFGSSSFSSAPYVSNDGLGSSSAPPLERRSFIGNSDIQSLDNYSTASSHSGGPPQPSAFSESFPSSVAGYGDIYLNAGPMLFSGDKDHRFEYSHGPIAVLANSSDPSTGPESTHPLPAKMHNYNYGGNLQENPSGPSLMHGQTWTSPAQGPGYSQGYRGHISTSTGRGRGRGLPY
Cyclin-dependent kinase 7 (Homo sapiens), sequence (P50613 whole entry): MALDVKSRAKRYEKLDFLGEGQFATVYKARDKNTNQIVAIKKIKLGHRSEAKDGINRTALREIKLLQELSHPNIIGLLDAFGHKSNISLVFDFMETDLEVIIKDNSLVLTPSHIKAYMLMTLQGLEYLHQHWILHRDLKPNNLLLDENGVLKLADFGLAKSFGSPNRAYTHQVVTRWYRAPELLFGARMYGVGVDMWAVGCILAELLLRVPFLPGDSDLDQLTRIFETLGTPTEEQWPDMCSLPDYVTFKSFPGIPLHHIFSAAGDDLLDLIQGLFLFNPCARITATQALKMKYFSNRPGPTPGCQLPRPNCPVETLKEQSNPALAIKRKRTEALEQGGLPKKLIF

Row | SMILES | IC50 [1] | IC50 [2] | Occ50 [3] | Occ50 [5] | Ratio [4] | Ratio IC50 [6] | Ratio IC50 [7]
1 | CCN(CC)C/C=C/C(=O)N1CC=C(c2ccc([C@H](C)C(=O)Nc3cc(C4CC4)[nH]n3)cc2)CC1 | 895 nM | 72 nM | – | – | – | – | –
2 | CC#CC(=O)N1CCC=C(c2ccc(CC(=O)Nc3cc(C4CC4)[nH]n3)cn2)C1 | 37 nM | 5 nM | – | – | – | – | –
3 | C=CC(=O)N1CCC=C(c2ccc(CC(=O)Nc3cc(C4CC4)[nH]n3)cn2)C1 | 23 nM | 4 nM | – | 0.016 µM | – | 75.2 | 432
4 | C=CC(=O)N1CCC(c2ccc(C(C)C(=O)Nc3cc(C4CC4)[nH]n3)cn2)C1 (stereo not given) | 55 nM | 6 nM | – | – | – | – | –

Second part, led by results:

Row | IC50 [1] | IC50 [2] | Occ50 [3] | Occ50 [5] | SMILES | Ratio [4] | Ratio IC50 [6] | Ratio IC50 [7]
5 | – | – | 130 nM | 0.305 µM | CC(C(=O)Nc1cc(C2CC2)[nH]n1)c1cccc(C2CCN(C(=O)/C=C/CN(C)C)CC2)c1 (stereo not given) | 0.425 | – | –
6 | 160 nM | 279 nM | – | – | C=CC(=O)N1CCC=C(c2ccc(C(C(=O)Nc3cc(C4CC4)[nH]n3)C(C)C)cc2)C1 (stereo not given) | – | – | –
7 | – | – | 1670 nM | – | C[C@H](C(=O)Nc1cc(C2CC2)[nH]n1)c1ccc(C2=CCN(C(=O)/C=C/CN(C)C)CC2)cc1 | – | – | –
8 | 40 nM | 19 nM | – | 0.025 µM | C=CC(=O)N1CC=C(c2ccc(CC(=O)Nc3cc(C4CC4)[nH]n3)cn2)CC1 | – | – | –
